Reference: US8455534B2, “Estrogen receptor modulators and uses thereof” (Aragon Pharmaceuticals, Inc., priority 2010, dated 2013)

How the values were obtained:
ER-α = biological target: T1, ER-α (Homo sapiens, UniProt P03372); test: Breast Cancer Cell ER-α In Cell Western Assay (SP1); type: cell-based; conditions: MCF-7 cells, SP1 antibody, 4 or 24 hr post compound addition; for Emax: MCF7, read-out: ER-α In Cell Western Assay (SP1) Max Response; for DC50: read-out: ER-α In Cell Western Assay (SP1) IC50
T1 sequence (P03372 1-595): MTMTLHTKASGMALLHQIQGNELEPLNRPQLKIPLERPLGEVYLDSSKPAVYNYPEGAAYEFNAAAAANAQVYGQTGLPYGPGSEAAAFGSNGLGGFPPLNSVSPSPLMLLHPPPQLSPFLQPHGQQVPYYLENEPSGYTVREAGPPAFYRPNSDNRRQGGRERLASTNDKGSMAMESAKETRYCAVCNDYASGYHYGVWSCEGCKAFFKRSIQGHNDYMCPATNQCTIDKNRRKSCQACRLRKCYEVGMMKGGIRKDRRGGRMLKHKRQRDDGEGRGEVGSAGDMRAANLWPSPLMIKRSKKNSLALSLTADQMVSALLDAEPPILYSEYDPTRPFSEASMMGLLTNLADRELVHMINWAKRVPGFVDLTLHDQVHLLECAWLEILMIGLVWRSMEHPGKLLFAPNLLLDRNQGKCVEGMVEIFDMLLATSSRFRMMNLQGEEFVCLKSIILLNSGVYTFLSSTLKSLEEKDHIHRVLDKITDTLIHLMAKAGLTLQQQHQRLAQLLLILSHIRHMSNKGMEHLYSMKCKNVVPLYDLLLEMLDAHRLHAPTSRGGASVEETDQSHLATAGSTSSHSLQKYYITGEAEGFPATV
Procedure: MCF-7 cells were adjusted to a concentration of 200,000 cells per mL in RPMI containing 10% charcoal-stripped FBS and 20 mM HEPES. 16 microliters of the cell suspension (3200 cells) was added to each well of a poly-D-lysine 384 well plate, and the cells were incubated overnight to allow the cells to adhere. The following day an eleven point, serial semilog dilution of each compound was added to the cells in 16 μL at a final concentration ranging from 0.3-0.000003 μM. At 4 or 24 hr post compound addition, the cells were fixed (10% formalin in PBS) for 20 minutes. Cells were permeablized in PBS 0.1% Triton and blocked with LICOR blocking buffer (50 μL1/well, 90′). The wells were then incubated overnight at 4° C. with SP1 rabbit monoclonal Ab (Thermo Scientific) diluted 1:1000 in LICOR blocking buffer/0.1% Tween-20. Wells which were treated with blocking buffer with Tween but no antibody were used as a background control. Wells were washed with 0.1% Tween-20/PBS and then incubated in goat anti-rabbit IRDye™ 800CW (LICOR Inc.; 1:1000) and DRAQ5 DNA dye (1:2000 for 2 mM stock) diluted in LICOR blocking buffer containing 0.1% Tween-20 and 0.01% SDS for 60 minutes. Cells were washed (50 μl/well, 5′ each) in 0.1% Tween-20/PBS. Plates were scanned on a LICOR Odyssey infrared imaging system. Integrated intensities in the 800 nm channel and 700 nm channel were measured to determine levels of ER and DNA respectively. Percent ER levels were determined as follows: (Integrated intensity 800 nm sample/integrated intensity 700 nm sample)/(Integrated intensity 800 nm untreated cells/integrated intensity 700 nm untreated cells)×100=% ER levels.

MCF-7 cells = test: Breast Cancer Cell Viability Assay (MCF-7, CellTiter-Glo); type: cell-based; conditions: 5 days' compound exposure; for IC50: Homo sapiens, MCF7, 120 h
Procedure: MCF-7 cells were adjusted to a concentration of 20,000 cells per mL in RPMI containing 10% FBS and 20 mM HEPES. 16 microliters of the cell suspension (320 cells) was added to each well of a 384 well plate, and the cells were incubated overnight to allow the cells to adhere. The following day an eleven point, serial semilog dilution of each compound was added to the cells in 16 μL at a final concentration ranging from 0.3-0.000003 μM. After 5 days' compound exposure, 16 μL of CellTiter-GLo (Promega, Madison Wis.) was added to the cells the relative luminescence units (RLUs) of each well was determined CellTiter-Glo added to 32 μL of medium without cells was used to obtain a background value. The Percent viability of each sample was determined as follows: (RLU sample-RLU background/RLU untreated cells-RLU background)×100=% viability.

SMILES	Emax (ER-α) [%]	DC50 (ER-α) [nM]	MCF7 Viability Assay Max Response (MCF-7 cells)	IC50 (MCF-7 cells) [nM]
Cc1cc(F)ccc1/C(=C(\c1ccc(/C=C/C(=O)O)cc1)c1ccc2[nH]ncc2c1F)C1CC1 [Compound 71, (E)-3-(4-((E)-2-Cyclopropyl-1-(4-fluoro-1H-indazol-5-yl)-2-(4-fluoro-2-methylphenyl)vinyl)phenyl)acrylic acid]	≥ 40	≤ 100	++ (++ = a single % value ≧ 40%)	≤ 100
O=C(O)/C=C/c1ccc(/C(=C(\c2ccccc2)C2CCC2)c2ccc3[nH]ncc3c2)cc1 [Compound 84, (E)-3-(4-((E)-2-Cyclobutyl-1-(1H-indazol-5-yl)-2-phenylvinyl)phenyl)acrylic acid]	≥ 40	≤ 100	++ (++ = a single % value ≧ 40%)	≤ 100
O=C(O)/C=C/c1ccc(/C(=C(/CCF)c2ccccc2)c2ccc3[nH]ncc3c2)cc1 [Compound 66, (E)-3-(4-((E)-4-Fluoro-1-(1H-indazol-5-yl)-2-phenylbut-1-en-1-yl)phenyl)acrylic acid]	≥ 40	≤ 100	++ (++ = a single % value ≧ 40%)	≤ 100
[2H]C([2H])([2H])C([2H])([2H])/C(=C(/c1ccc(/C=C/C(=O)O)cc1)c1ccc2[nH]ncc2c1)c1ccc(Cl)cc1Cl [Compound 132, (E)-3-(4-((E)-2-(2,4-Dichlorophenyl)-3,3,4,4,4-pentadeutero-1-(1H-indazol-5-yl)but-1-en-1-yl)phenyl)acrylic acid]	≥ 40	≤ 100	++ (++ = a single % value ≧ 40%)	≤ 100
CC/C(=C(/c1ccc(/C=C/C(=O)O)cc1)c1ccc2[nH]ncc2c1)c1cc(F)ccc1F [Compound 32, (E)-3-(4-((E)-2-(2,5-Difluorophenyl)-1-(1H-indazol-5-yl)but-1-en-1-yl)phenyl)acrylic acid]	≥ 40	≤ 100	++ (++ = a single % value ≧ 40%)	≤ 100
CC/C(=C(/c1ccc(/C=C/C(=O)O)cc1)c1cc(F)c2[nH]ncc2c1)c1ccc(Cl)cc1Cl [Compound 134, (E)-3-(4-((E)-2-(2,4-Dichlorophenyl)-1-(7-fluoro-1H-indazol-5-yl)but-1-en-1-yl)phenyl)acrylic acid]	≥ 40	≤ 100	++ (++ = a single % value ≧ 40%)	≤ 100
CC/C(=C(/c1ccc(/C=C/C(=O)O)cc1)c1ccc2[nH]ncc2c1)c1cccc(OC)c1 [Compound 5, (E)-3-(4-((E)-1-(1H-indazol-5-yl)-2-(3-methoxyphenyl)but-1-en-1-yl)phenyl)acrylic acid]	≥ 40	≤ 100	++ (++ = a single % value ≧ 40%)	≤ 100
CC/C(=C(/c1ccc(/C=C/C(=O)O)cc1)c1ccc2[nH]ncc2c1Cl)c1ccccc1 [Compound 52, (E)-3-(4-((E)-1-(4-Chloro-1H-indazol-5-yl)-2-phenylbut-1-en-1-yl)phenyl)acrylic acid]	≥ 40	≤ 100	++ (++ = a single % value ≧ 40%)	≤ 100
CC/C(=C(/c1ccc(/C=C(\F)C(=O)O)cc1)c1ccc2[nH]ncc2c1)c1ccccc1 [Compound 103, (Z)-3-(4-((E)-1-(1H-Indazol-5-yl)-2-phenylbut-1-en-1-yl)phenyl)-2-fluoroacrylic acid]	≥ 40	≤ 100	++ (++ = a single % value ≧ 40%)	> 100
CC/C(=C(/c1ccc(/C=C/C(=O)O)cc1)c1ccc2[nH]ncc2c1)c1ccc(Cl)cc1 [Compound 4, (E)-3-(4-((E)-2-(4-Chlorophenyl)-1-(1H-indazol-5-yl)but-1-en-1-yl)phenyl)acrylic acid]	≥ 40		++ (++ = a single % value ≧ 40%)	≤ 100
O=C(O)/C=C/c1ccc(/C(=C(/CCF)c2ccc(F)cc2)c2ccc3[nH]ncc3c2)cc1 [Compound 78, (E)-3-(4-((E)-4-Fluoro-2-(4-fluorophenyl)-1-(1H-indazol-5-yl)but-1-en-1-yl)phenyl)acrylic acid]	≥ 40	≤ 100	++ (++ = a single % value ≧ 40%)	≤ 100
O=C(O)/C=C/c1ccc(/C(=C(/CC2CCCC2)c2ccccc2)c2ccc3[nH]ncc3c2)cc1 [Compound 60, (E)-3-(4-((E)-3-Cyclopentyl-1-(1H-indazol-5-yl)-2-phenylprop-1-en-1-yl)phenyl)acrylic acid]	≥ 40	≤ 100	++ (++ = a single % value ≧ 40%)	≤ 100
CC/C(=C(/c1ccc(/C=C/C(=O)O)cc1)c1ccc2[nH]ncc2c1)c1ccc(C#N)cc1 [Compound 45, (E)-3-(4-((E)-2-(4-Cyanophenyl)-1-(1H-indazol-5-yl)but-1-en-1-yl)phenyl)acrylic acid]	≥ 40		++ (++ = a single % value ≧ 40%)	≤ 100
CC/C(=C(/c1ccc(/C=C/C(=O)O)cc1)c1ccc2[nH]ncc2c1)c1cc(S(C)(=O)=O)ccc1C [Compound 127, (E)-3-(4-((E)-1-(1H-Indazol-5-yl)-2-(2-methyl-5-(methylsulfonyl)phenyl)but-1-en-1-yl)phenyl)acrylic acid]	< 40	> 100	+ (+ = a single % value < 40%)	> 100
CC/C(=C(/c1ccc(/C=C/C(=O)O)cc1)c1ccc2[nH]ncc2c1)c1cccc(OC(F)(F)F)c1 [Compound 83, (E)-3-(4-((E)-1-(1H-Indazol-5-yl)-2-(3-(trifluoromethoxy)phenyl)but-1-en-1-yl)phenyl)acrylic acid]	≥ 40	≤ 100	++ (++ = a single % value ≧ 40%)	≤ 100
CC/C(=C(/c1ccc(/C=C/C(=O)O)cc1)c1ccc2[nH]ncc2c1)c1ccc(S(C)(=O)=O)cc1F [Compound 131, (E)-3-(4-((E)-2-(2-Fluoro-4-(methylsulfonyl)phenyl)-1-(1H-indazol-5-yl)but-1-en-1-yl)phenyl)acrylic acid]	≥ 40	> 100	++ (++ = a single % value ≧ 40%)	> 100
CC/C(=C(/c1ccc(/C=C/C(=O)O)cc1)c1ccc2[nH]ncc2c1F)c1ccc(F)cc1C [Compound 69, (E)-3-(4-((E)-1-(4-Fluoro-1H-indazol-5-yl)-2-(4-fluoro-2-methylphenyl)but-1-en-1-yl)phenyl)acrylic acid]	≥ 40	≤ 100	++ (++ = a single % value ≧ 40%)	≤ 100
CC/C(=C(/c1ccc(/C=C(\Cl)C(=O)O)cc1)c1ccc2[nH]ncc2c1)c1ccccc1 [Compound 104, (Z)-3-(4-((E)-1-(1H-Indazol-5-yl)-2-phenylbut-1-en-1-yl)phenyl)-2-chloroacrylic acid]	≥ 40	≤ 100	++ (++ = a single % value ≧ 40%)	> 100
